Assay results: ChEMBL document CHEMBL1208701, “Structure-activity relationship of indoline-2-carboxylic acid N-(substituted)phenylamide derivatives” (Bioorg Med Chem Lett, 2010)

Columns and labels:
RAW264.7 = assay: Inhibition of LPS-induced NF-kappaB transcriptional activity in mouse RAW264.7 cells at 100 uM; assay type: cell-based
[1] = Inhibition of LPS-induced NF-kappaB transcriptional activity in mouse RAW264.7 cells; assay type: cell-based
NCI-H23 = assay: Cytotoxicity against human NCI-H23 cells; assay type: functional
PC-3 = assay: Cytotoxicity against human PC3 cells; assay type: functional
ACHN = assay: Cytotoxicity against human ACHN cells; assay type: functional
HCT-15 = assay: Cytotoxicity against human HCT15 cells; assay type: functional
MDA-MB-231 = assay: Cytotoxicity against human MDA-MB-231 cells; assay type: functional
NUGC-3 = assay: Cytotoxicity against human NUGC3 cells; assay type: functional

SMILES | inhibition (RAW264.7) [%] | IC50 [1] [µM] | further results
CC(C)(C)OC(=O)N1c2ccccc2CC1C(=O)Nc1ccc(C(F)(F)F)cc1 (stereo unspecified) | > 100 | 12 | GI50 (NCI-H23): 3.21 µM; GI50 (PC-3): 2.02 µM
O=C(Nc1ccccc1[N+](=O)[O-])C1Cc2ccccc2N1 (stereo unspecified) | 41 | > 100 | –
Cc1ccc(S(=O)(=O)N2c3ccccc3CC2C(=O)Nc2cc(Cl)cc(Cl)c2)cc1 (stereo unspecified) | – | > 100 | GI50 (NCI-H23): 7.53 µM; GI50 (PC-3): > 10 µM; GI50 (ACHN): > 10 µM; GI50 (HCT-15): > 10 µM; GI50 (MDA-MB-231): > 10 µM; GI50 (NUGC-3): > 10 µM
COc1ccc(NC(=O)C2Cc3ccccc3N2C(=O)OC(C)(C)C)cc1 (stereo unspecified) | 29 | > 100 | –
Cc1cccc(NC(=O)C2Cc3ccccc3N2)c1 (stereo unspecified) | 29 | > 100 | –
CC(C)(C)OC(=O)N1c2ccccc2CC1C(=O)Nc1ccc(O)cc1 (stereo unspecified) | 42 | > 100 | –
Cc1ccc(NC(=O)C2Cc3ccccc3N2C(=O)OC(C)(C)C)cc1 (stereo unspecified) | 37 | > 100 | –
Cc1cc(C)cc(NC(=O)C2Cc3ccccc3N2C(=O)OC(C)(C)C)c1 (stereo unspecified) | 78 | 16.6 | –
COc1cccc2c1C(=O)c1c(O)c3c(c(O)c1C2=O)C[C@@](O)(C(=O)CO)C[C@@H]3O[C@H]1C[C@H](N)[C@H](O)[C@H](C)O1 [DOXORUBICIN] | – | – | GI50 (NCI-H23): 0.178 µM; GI50 (PC-3): 0.317 µM; GI50 (ACHN): 0.182 µM; GI50 (HCT-15): 2.18 µM; GI50 (MDA-MB-231): 0.194 µM; GI50 (NUGC-3): 0.202 µM
CC(C)(C)OC(=O)N1c2ccccc2CC1C(=O)Nc1cccc([N+](=O)[O-])c1 (stereo unspecified) | 94 | 14.1 | –
O=C(Nc1cccc(C(F)(F)F)c1)C1Cc2ccccc2N1 (stereo unspecified) | 99 | 46 | GI50 (NCI-H23): 4.96 µM; GI50 (PC-3): 4.24 µM
Cc1ccc(NC(=O)C2Cc3ccccc3N2C(=O)OC(C)(C)C)cc1C (stereo unspecified) | 64 | – | –
O=C(Nc1ccccc1O)C1Cc2ccccc2N1 (stereo unspecified) | 37 | > 100 | –
Cc1ccccc1NC(=O)C1Cc2ccccc2N1 (stereo unspecified) | 39 | > 100 | –
CC(C)(C)OC(=O)N1c2ccccc2CC1C(=O)Nc1ccccc1 (stereo unspecified) | 30 | > 100 | –
CC(C)(C)OC(=O)N1c2ccccc2CC1C(=O)Nc1ccccc1C(F)(F)F (stereo unspecified) | 38 | > 100 | –
CC(C)(C)OC(=O)N1c2ccccc2CC1C(=O)Nc1cc(C(F)(F)F)cc(C(F)(F)F)c1 (stereo unspecified) | – | 14.9 | GI50 (NCI-H23): 1.52 µM; GI50 (PC-3): 0.838 µM
COc1cc(NC(=O)C2Cc3ccccc3N2)cc(OC)c1 (stereo unspecified) | 41 | > 100 | –
O=C(Nc1ccc(C(F)(F)F)cc1)C1Cc2ccccc2N1 (stereo unspecified) | 56 | 79.2 | –
CC(C)(C)OC(=O)N1c2ccccc2CC1C(=O)Nc1cc(Cl)ccc1Cl (stereo unspecified) | 71 | 45.9 | –
O=C(Nc1cc(Cl)cc(Cl)c1)C1Cc2ccccc2N1 (stereo unspecified) | 98 | – | GI50 (NCI-H23): 12.3 µM; GI50 (PC-3): 2.53 µM
O=C(Nc1ccc([N+](=O)[O-])cc1)C1Cc2ccccc2N1 (stereo unspecified) | 41 | > 100 | –

SMILES | inhibition (RAW264.7) [%] | IC50 [1] [µM] | further results
COc1ccc(NC(=O)C2Cc3ccccc3N2)cc1OC (stereo unspecified) | 15 | > 100 | –
Cc1cc(C)cc(NC(=O)C2Cc3ccccc3N2)c1 (stereo unspecified) | 56 | 85 | –
O=C(Nc1cc(C(F)(F)F)cc(C(F)(F)F)c1)C1Cc2ccccc2N1 (stereo unspecified) | 96 | 12 | GI50 (NCI-H23): 0.648 µM; GI50 (PC-3): 0.794 µM
Cc1ccc(NC(=O)C2Cc3ccccc3N2)cc1 (stereo unspecified) | 41 | > 100 | –
CC(NC(=O)OC(C)(C)C)C(=O)N1c2ccccc2CC1C(=O)Nc1cc(Cl)cc(Cl)c1 (stereo unspecified) | – | 5.9 | GI50 (NCI-H23): 6.71 µM; GI50 (PC-3): 4.43 µM; GI50 (ACHN): 5.04 µM; GI50 (HCT-15): 4.33 µM; GI50 (NUGC-3): 6.21 µM
CC(C)(C)OC(=O)N1c2ccccc2CC1C(=O)Nc1ccccc1Cl (stereo unspecified) | 50 | – | –
CC(C)(C)OC(=O)N1c2ccccc2CC1C(=O)Nc1ccccc1O (stereo unspecified) | 93 | – | –
CC(C)(C)OC(=O)N1c2ccccc2CC1C(=O)Nc1ccc(Cl)c(Cl)c1 (stereo unspecified) | 97 | 12.6 | GI50 (NCI-H23): 3.19 µM; GI50 (PC-3): 4.66 µM
COc1ccc(OC)c(NC(=O)C2Cc3ccccc3N2C(=O)OC(C)(C)C)c1 (stereo unspecified) | 76 | – | –
O=C(Nc1ccccc1)C1Cc2ccccc2N1 (stereo unspecified) | 65 | 71.6 | –
Cc1ccc(C)c(NC(=O)C2Cc3ccccc3N2C(=O)OC(C)(C)C)c1 (stereo unspecified) | 75 | 50 | –
O=C(Nc1ccc(O)cc1)C1Cc2ccccc2N1 (stereo unspecified) | 63 | 66.2 | –
COc1cccc(NC(=O)C2Cc3ccccc3N2)c1 (stereo unspecified) | 64 | – | –
COc1ccccc1NC(=O)C1Cc2ccccc2N1C(=O)OC(C)(C)C (stereo unspecified) | 76 | – | –
COc1cc(NC(=O)C2Cc3ccccc3N2C(=O)OC(C)(C)C)cc(OC)c1 (stereo unspecified) | 88 | – | –
CC(C)(C)OC(=O)N1c2ccccc2CC1C(=O)Nc1cccc(Cl)c1 (stereo unspecified) | > 100 | – | GI50 (NCI-H23): 3.23 µM
COc1ccc(NC(=O)C2Cc3ccccc3N2)cc1 (stereo unspecified) | 37 | > 100 | –
COc1ccc(NC(=O)C2Cc3ccccc3N2C(=O)OC(C)(C)C)cc1OC (stereo unspecified) | 65 | 52.2 | –
O=C(Nc1cc(Cl)ccc1Cl)C1Cc2ccccc2N1 (stereo unspecified) | 34 | > 100 | –
CC(C)(C)OC(=O)N1c2ccccc2CC1C(=O)Nc1ccc([N+](=O)[O-])cc1 (stereo unspecified) | > 100 | – | GI50 (NCI-H23): 2.52 µM; GI50 (PC-3): 2.79 µM
Cc1ccc(C)c(NC(=O)C2Cc3ccccc3N2)c1 (stereo unspecified) | 47 | > 100 | –
COc1ccc(OC)c(NC(=O)C2Cc3ccccc3N2)c1 (stereo unspecified) | 47 | > 100 | –

SMILES | inhibition (RAW264.7) [%] | IC50 [1] [µM] | further results
O=C(Nc1ccc(Cl)cc1)C1Cc2ccccc2N1 (stereo unspecified) | 62 | 70.7 | –
CC(C)(C)OC(=O)N1c2ccccc2CC1C(=O)Nc1ccc(Cl)cc1 (stereo unspecified) | 31 | > 100 | –
O=C(Nc1cccc(O)c1)C1Cc2ccccc2N1 (stereo unspecified) | 30 | > 100 | –
Cc1ccc(NC(=O)C2Cc3ccccc3N2)cc1C (stereo unspecified) | 87 | 43.3 | –
O=C(Nc1ccccc1Cl)C1Cc2ccccc2N1 (stereo unspecified) | 62 | 69.7 | –
CC(C)(C)OC(=O)N1c2ccccc2CC1C(=O)Nc1cc(Cl)cc(Cl)c1 (stereo unspecified) | – | 10.1 | GI50 (NCI-H23): 3.39 µM; GI50 (PC-3): 1.68 µM
O=C(Nc1cccc([N+](=O)[O-])c1)C1Cc2ccccc2N1 (stereo unspecified) | 49 | > 100 | –
O=C(Nc1cc(Cl)cc(Cl)c1)C1Cc2ccccc2N1C(=O)c1ccccc1 (stereo unspecified) | – | 46.5 | GI50 (NCI-H23): 4.28 µM; GI50 (PC-3): 6.84 µM; GI50 (ACHN): 8.26 µM; GI50 (MDA-MB-231): 6.42 µM; GI50 (NUGC-3): 7.97 µM
O=C(Nc1ccc(Cl)c(Cl)c1)C1Cc2ccccc2N1 (stereo unspecified) | 72 | – | GI50 (NCI-H23): 11.6 µM
CC(C)(C)OC(=O)N1c2ccccc2CC1C(=O)Nc1cccc(O)c1 (stereo unspecified) | 75 | 58.7 | –
O=C(Nc1ccc(C(F)(F)F)cc1)C1Cc2ccccc2N1C(=O)c1ccccc1 (stereo unspecified) | – | 13.5 | GI50 (NCI-H23): 4.58 µM; GI50 (HCT-15): 5.49 µM; GI50 (NUGC-3): 8.72 µM
COc1cc2c(cc1O)CCC(C(=O)Nc1ccccc1)O2 (stereo unspecified) | 90 | 40.1 | GI50 (NCI-H23): 9.32 µM
Cc1ccccc1NC(=O)C1Cc2ccccc2N1C(=O)OC(C)(C)C (stereo unspecified) | 68 | 62.5 | –
O=C(Nc1cccc(Cl)c1)C1Cc2ccccc2N1 (stereo unspecified) | 63 | – | –
CC(C)(C)OC(=O)N1c2ccccc2CC1C(=O)Nc1ccccc1[N+](=O)[O-] (stereo unspecified) | 63 | – | –
Cc1cccc(NC(=O)C2Cc3ccccc3N2C(=O)OC(C)(C)C)c1 (stereo unspecified) | 87 | – | –
O=C(Nc1ccccc1C(F)(F)F)C1Cc2ccccc2N1 (stereo unspecified) | 61 | 79.4 | –
CC(C)(C)OC(=O)N1c2ccccc2CC1C(=O)Nc1cccc(C(F)(F)F)c1 (stereo unspecified) | > 100 | – | GI50 (NCI-H23): 6.34 µM; GI50 (PC-3): 3.34 µM
COc1cccc(NC(=O)C2Cc3ccccc3N2C(=O)OC(C)(C)C)c1 (stereo unspecified) | 38 | > 100 | –
COc1ccccc1NC(=O)C1Cc2ccccc2N1 (stereo unspecified) | 60 | 79.2 | –
